Assay: xn = mol fraction of the nth substance listed
Details: 101 kPa, Liquid; for viscosity: Anton Paar Stabinger viscometer

COc1ccccc1 [anisole] + Cc1ccccc1C
Details	mass density [kg/m3]	speed of sound [m/s]	viscosity [mPa·s]
288.15 K, x1 = 0.0915	893.348	1395	0.885
288.15 K, x1 = 0.198	905.888	1402.3	0.914
288.15 K, x1 = 0.368	924.439	1409	0.944
288.15 K, x1 = 0.4954	938.936	1415.7	0.979
288.15 K, x1 = 0.6554	957.421	1424.7	1.028
288.15 K, x1 = 0.766	970.279	1431.2	1.066
288.15 K, x1 = 0.868	982.607	1439.4	1.133
288.15 K, x1 = 0.916	988.769	1444.5	1.159
288.15 K, x1 = 0.949	992.756	1447.1	1.172
288.15 K, x1 = 1	998.44	1449.1	1.188
293.15 K, x1 = 0.0915	889.076	1374.4	0.821
293.15 K, x1 = 0.198	900.83	1381.7	0.844
293.15 K, x1 = 0.368	919.973	1388.3	0.868
293.15 K, x1 = 0.4954	934.513	1394.9	0.899
293.15 K, x1 = 0.6554	953.102	1403.9	0.942
293.15 K, x1 = 0.766	966.072	1410.4	0.975
293.15 K, x1 = 0.868	978.09	1418.6	1.035
293.15 K, x1 = 0.916	983.748	1424	1.058
293.15 K, x1 = 0.949	987.635	1426.6	1.072
293.15 K, x1 = 1	993.649	1428.5	1.084
298.15 K, x1 = 0.0915	885.509	1354	0.769
298.15 K, x1 = 0.198	897.159	1359.5	0.79
298.15 K, x1 = 0.368	916.136	1368.6	0.813
298.15 K, x1 = 0.4954	930.569	1375.7	0.841
298.15 K, x1 = 0.6554	948.998	1385.1	0.881
298.15 K, x1 = 0.766	961.882	1391.9	0.914
298.15 K, x1 = 0.868	973.792	1398.6	0.974
298.15 K, x1 = 0.916	979.418	1402	0.996
298.15 K, x1 = 0.949	983.27	1404.3	1.005
298.15 K, x1 = 1	989.104	1408	1.017
303.15 K, x1 = 0.0915	880.756	1333.4	0.718
303.15 K, x1 = 0.198	892.435	1339.3	0.735
303.15 K, x1 = 0.368	911.407	1348.8	0.753
303.15 K, x1 = 0.4954	925.824	1355.9	0.776
303.15 K, x1 = 0.6554	944.269	1365.2	0.811
303.15 K, x1 = 0.766	957.177	1371.8	0.84
303.15 K, x1 = 0.868	969.125	1378.1	0.893
303.15 K, x1 = 0.916	974.761	1381.2	0.912
303.15 K, x1 = 0.949	978.63	1383.3	0.922
303.15 K, x1 = 1	984.372	1386.7	0.931

COc1ccccc1 [anisole] + c1ccccc1
Details	mass density [kg/m3]	speed of sound [m/s]	viscosity [mPa·s]
288.15 K, x1 = 0.097	897.546	1356.8	0.747
288.15 K, x1 = 0.175	907.884	1364.5	0.777
288.15 K, x1 = 0.274	920.511	1374.4	0.817
288.15 K, x1 = 0.368	932.009	1383.8	0.856
288.15 K, x1 = 0.4971	947.045	1395.2	0.915
288.15 K, x1 = 0.623	960.925	1406.8	0.976
288.15 K, x1 = 0.72	971.118	1418.4	1.027
288.15 K, x1 = 0.8003	979.257	1425.2	1.072
288.15 K, x1 = 0.8895	988.004	1437.5	1.126
288.15 K, x1 = 1	998.441	1449.1	1.188
293.15 K, x1 = 0.097	890.999	1333	0.683
293.15 K, x1 = 0.175	901.497	1340.7	0.71
293.15 K, x1 = 0.274	914.322	1350.8	0.746
293.15 K, x1 = 0.368	926.005	1360.5	0.781
293.15 K, x1 = 0.4971	941.295	1373.9	0.833
293.15 K, x1 = 0.623	955.425	1387.2	0.889
293.15 K, x1 = 0.72	965.807	1397.5	0.936
293.15 K, x1 = 0.8003	974.102	1406.1	0.978
293.15 K, x1 = 0.8895	983.017	1415.9	1.027
293.15 K, x1 = 1	993.649	1428.5	1.084
298.15 K, x1 = 0.097	887.083	1309.3	0.638
298.15 K, x1 = 0.175	897.532	1317	0.664
298.15 K, x1 = 0.274	910.286	1327.1	0.697
298.15 K, x1 = 0.368	921.904	1337	0.73
298.15 K, x1 = 0.4971	937.104	1350.8	0.779
298.15 K, x1 = 0.623	951.156	1364.6	0.831
298.15 K, x1 = 0.72	961.483	1375.5	0.877
298.15 K, x1 = 0.8003	969.734	1384.6	0.918
298.15 K, x1 = 0.8895	978.597	1394.8	0.963
298.15 K, x1 = 1	989.15	1408	1.017
303.15 K, x1 = 0.097	881.745	1286.9	0.601
303.15 K, x1 = 0.175	892.244	1295.4	0.623
303.15 K, x1 = 0.274	905.059	1306.3	0.651
303.15 K, x1 = 0.368	916.731	1316.6	0.679
303.15 K, x1 = 0.4971	932.013	1330.9	0.72
303.15 K, x1 = 0.623	946.146	1345	0.767
303.15 K, x1 = 0.72	956.542	1355.8	0.808
303.15 K, x1 = 0.8003	964.845	1364.9	0.844
303.15 K, x1 = 0.8895	973.764	1375.1	0.883
303.15 K, x1 = 1	984.374	1387.7	0.931

COc1ccccc1 [anisole] + Cc1ccc(C)cc1
Details	mass density [kg/m3]	speed of sound [m/s]	viscosity [mPa·s]
288.15 K, x1 = 0.0822	875.328	1360.3	0.728
288.15 K, x1 = 0.187	888.441	1373.1	0.778
288.15 K, x1 = 0.31	904.181	1384.4	0.829
288.15 K, x1 = 0.47	925.057	1395.9	0.884
288.15 K, x1 = 0.637	947.54	1410.4	0.958
288.15 K, x1 = 0.747	962.692	1420.6	1.013
288.15 K, x1 = 0.822	973.119	1437	1.109
288.15 K, x1 = 0.888	982.387	1443	1.145
288.15 K, x1 = 0.949	991.051	1446.3	1.167
288.15 K, x1 = 1	998.44	1449.1	1.188
293.15 K, x1 = 0.0822	871.032	1339.5	0.674
293.15 K, x1 = 0.187	884.105	1352.5	0.717
293.15 K, x1 = 0.31	899.758	1364	0.761
293.15 K, x1 = 0.47	920.561	1375.3	0.809
293.15 K, x1 = 0.637	942.968	1389.9	0.875
293.15 K, x1 = 0.747	958.092	1400.3	0.925
293.15 K, x1 = 0.822	968.502	1416.7	1.013
293.15 K, x1 = 0.888	977.769	1422.5	1.046
293.15 K, x1 = 0.949	986.356	1425.8	1.066
293.15 K, x1 = 1	993.651	1428.5	1.084
298.15 K, x1 = 0.0822	866.765	1317.4	0.635
298.15 K, x1 = 0.187	879.807	1326.5	0.674
298.15 K, x1 = 0.31	895.413	1337.5	0.714
298.15 K, x1 = 0.47	916.177	1352.2	0.759
298.15 K, x1 = 0.637	938.559	1368.2	0.821
298.15 K, x1 = 0.747	953.665	1379.3	0.868
298.15 K, x1 = 0.822	964.094	1387.4	0.952
298.15 K, x1 = 0.888	973.344	1394.8	0.985
298.15 K, x1 = 0.949	981.943	1401.8	1.003
298.15 K, x1 = 1	989.105	1408	1.017
303.15 K, x1 = 0.0822	862.434	1296.9	0.597
303.15 K, x1 = 0.187	875.432	1306.5	0.628
303.15 K, x1 = 0.31	890.974	1317.6	0.662
303.15 K, x1 = 0.47	911.659	1332.7	0.7
303.15 K, x1 = 0.637	933.983	1349.1	0.754
303.15 K, x1 = 0.747	949.069	1360.5	0.798
303.15 K, x1 = 0.822	959.511	1368.5	0.875
303.15 K, x1 = 0.888	968.761	1375.6	0.903
303.15 K, x1 = 0.949	977.313	1382.3	0.918
303.15 K, x1 = 1	984.372	1387.7	0.931

From the NIST ThermoML archive (doi:10.1021/je060170c)
